Measured values reported in ChEMBL document CHEMBL1201862, “PubChem BioAssay data set” (2004).
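Assay format: 96-well plates, 48-hour exposure. GI50 marks 50% less growth.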 Active and inactive are the calls of the source. Cut-off read from the data, not from the text of the source: active = GI50 up to about 1.1 µM and inactive = higher.

Assays:
Test in all cases: growth of human tumour cells (NCI), 48 h
[1] = tested on: CAKI-1
[2] = tested on: DLD-1
[3] = tested on: DMS-114
[4] = tested on: DMS-273
[5] = tested on: HOP-92
[6] = tested on: IGROV-1
[7] = tested on: KM-20L2
[8] = tested on: M14
[9] = tested on: RPMI-8226
[10] = tested on: SR
[11] = tested on: TK-10
[12] = tested on: BT-549
[13] = tested on: MCF7
[14] = tested on: MDA-MB-231
[15] = tested on: MDA-MB-435
[16] = tested on: NCI/ADR-RES
[17] = tested on: PC-3
[18] = tested on: RXF 393
[19] = tested on: SK-OV-3
[20] = tested on: T47D

Measured: GI50

CC(C)OP(=O)(OC(C)C)/C(=N/Nc1ccc([N+](=O)[O-])cc1)Nc1ccc(N/C(=N\Nc2ccc([N+](=O)[O-])cc2)P(=O)(OC(C)C)OC(C)C)cc1
inactive: [1] 32.8 µM | [2] 4.72 µM | [3] 9.51 µM | [4] 5.58 µM | [5] > 100 µM | [6] 4.43 µM | [7] 14.9 µM | [8] 14.5 µM | [9] 5.24 µM | [10] 5.66 µM | [11] 89.9 µM

CC1=C[C@@H]2[C@@H](CC(CO)=C[C@H]3[C@@H]4C(C)(C)[C@]4(OCC(C)C)[C@H](OCC(C)C)[C@@H](C)[C@]23O)C1=O
active: [15] 0.426 µM
inactive: [12] 1.14 µM | [1] 1.38 µM | [5] 1.44 µM | [6] 2.01 µM | [8] 1.51 µM | [13] 2.56 µM | [14] 1.39 µM | [16] 2.55 µM | [17] 1.49 µM | [18] 1.54 µM | [19] > 8.32 µM | [10] 1.14 µM | [20] 2.16 µM | [11] 1.82 µM

N#Cc1c(N)nc(Nc2cccc3ccccc23)c(C#N)c1C#N
inactive: [1] 6.25 µM | [6] > 10 µM | [8] 6.61 µM | [13] 2.79 µM | [14] 3.73 µM | [15] 3.31 µM | [16] 2.71 µM | [17] 4.27 µM | [9] 2.61 µM | [18] > 10 µM | [19] 3.94 µM | [10] 3 µM | [20] 8.09 µM | [11] > 10 µM

COC(=O)C(NC(=O)c1ccccc1)C(c1c(O)cc(O)cc1O)P(=O)(OC)OC (configuration not stated)
inactive: [1] > 100 µM | [2] > 100 µM | [3] > 100 µM | [4] 42.5 µM | [5] > 100 µM | [6] > 100 µM | [7] > 100 µM | [8] 48.8 µM | [9] 95.9 µM | [19] > 100 µM | [10] > 100 µM | [11] > 100 µM

O=C1C[C@@H]2[C@@H](C=CC23CCCC3)N1O
inactive: [1] > 100 µM | [2] > 100 µM | [3] > 100 µM | [4] > 100 µM | [6] > 100 µM | [7] > 100 µM | [8] > 100 µM | [9] > 100 µM | [18] > 100 µM | [19] > 100 µM | [11] > 100 µM

O=S(=O)(N=S(c1ccccc1)c1ccccc1)c1ccccc1
inactive: [12] > 100 µM | [5] > 100 µM | [8] > 100 µM | [13] > 100 µM | [15] > 100 µM | [16] > 100 µM | [17] > 100 µM | [9] > 100 µM | [18] > 100 µM | [10] > 100 µM | [20] > 100 µM | [11] > 100 µM

NC(CCCCO)C(=O)O (configuration not stated)
inactive: [12] > 100 µM | [1] > 100 µM | [5] > 100 µM | [6] > 100 µM | [8] > 100 µM | [13] > 100 µM | [14] > 100 µM | [15] > 100 µM | [16] > 100 µM | [17] > 100 µM | [9] > 100 µM | [18] > 100 µM | [19] > 100 µM | [10] > 100 µM | [20] > 100 µM | [11] > 100 µM

Nc1ncnc2c1cnn2Cc1ccc(Cl)cc1
inactive: [5] > 100 µM | [8] > 100 µM | [13] > 100 µM | [14] > 100 µM | [15] > 100 µM | [16] 83 µM | [17] > 100 µM | [18] > 100 µM | [20] > 100 µM | [11] > 100 µM

O=C(O)c1ccccc1CN1CCCC(C(=O)O)C1 (configuration not stated)
inactive: [12] > 100 µM | [1] > 100 µM | [5] > 100 µM | [6] > 100 µM | [8] > 100 µM | [13] > 100 µM | [14] > 100 µM | [15] > 100 µM | [16] > 100 µM | [17] > 100 µM | [9] > 100 µM | [18] > 100 µM | [19] > 100 µM | [10] > 100 µM | [20] > 100 µM | [11] > 100 µM

CCCCNC(=S)Nc1nc(C(=O)NNC(=S)NC2CCCCC2)cs1
inactive: [12] > 100 µM | [1] > 100 µM | [5] > 100 µM | [6] 66.5 µM | [8] > 100 µM | [13] > 100 µM | [14] > 100 µM | [15] > 100 µM | [16] 74.3 µM | [17] > 100 µM | [9] > 100 µM | [19] 49 µM | [10] 8.07 µM | [20] > 100 µM | [11] > 100 µM

C=C1C(=O)O[C@@H]2[C@H](O)[C@@H](C)[C@@H]3C=CC(=O)[C@@]3(C)[C@H](OC(=O)C=C(C)C)[C@H]12
inactive: [3] 2.4 µM | [4] 1.48 µM | [6] 1.96 µM | [7] 1.66 µM | [19] 3.57 µM
active: [1] 0.536 µM | [2] 0.277 µM | [5] 0.944 µM | [13] 0.56 µM | [16] 0.536 µM | [9] 0.294 µM

O=S(O)CCCCCSSSCCCCCS(=O)O
inactive: [2] 35.4 µM | [7] > 100 µM | [8] 43.7 µM | [18] 14.4 µM | [19] > 100 µM | [10] 3.48 µM | [11] 29 µM

Nc1nc(=O)c2c([nH]1)NCC(CNc1ccc(C(=O)N[C@@H](CCC(=O)O)C(=O)O)cc1)N2C=O (some centres not stated) [LEUCOVORIN CALCIUM]
inactive: [1] 102 µM | [2] > 125 µM | [3] > 125 µM | [4] > 125 µM | [5] > 125 µM | [6] > 125 µM | [7] > 125 µM | [13] > 125 µM | [16] > 125 µM | [9] > 125 µM | [18] > 125 µM | [19] > 125 µM

CCCCCCCCCCCCCCCCCCOP(=O)([O-])OCC[N+](C)(C)C [OCTADECYLPHOSPHONOCHOLINE]
inactive: [12] 1.22 µM | [2] 4.7 µM | [3] 13.6 µM | [4] 1.74 µM | [7] 3.38 µM | [16] 1.32 µM | [18] 2.45 µM | [19] 5.69 µM
active: [1] 0.321 µM | [5] 0.33 µM | [6] 0.614 µM | [13] 0.382 µM | [14] 0.0447 µM | [9] 0.276 µM | [20] < 0.0209 µM
